Assay results: US8865623B2, “Herbicidally active cyclic diones and derivatives thereof, processes for their preparation, compositions, and method of controlling weeds” (Syngenta Limited, priority 2009, dated 2014)

How the values were obtained:
Assay type in all cases: in vivo
Lolium perenne (LOLPE) [1] = assay: Pre-emergence herbicidal activity, glasshouse pot test; conditions: Lolium perenne, 312 h, Rate 250 g/ha, evaluated after 13 days, read-out: Pre-emergence activity LOLPE (100=total damage to plant; 0=no damage to plant)
Outline: (§1)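 Rating: 0 (no damage) to 100 (total damage), 13 days after application. Application: aqueous spray from a.i. in acetone/water (50:50) + 0.5% Tween 20, one day (pre) or 8 days (post) after sowing. Glasshouse: 24/16° C, 14 h light, 65% humidity.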

[2] = system: Alopecurus myosuroides (ALOMY); assay: as above; conditions: Alopecurus myosuroides, 312 h, Rate 250 g/ha, evaluated after 13 days, read-out: Pre-emergence activity ALOMY (100=total damage to plant; 0=no damage to plant)
Outline: as §1

[3] = system: Echinochloa crus-galli (ECHCG); assay: as above; conditions: Echinochloa crus-galli, 312 h, Rate 250 g/ha, evaluated after 13 days, read-out: Pre-emergence activity ECHCG (100=total damage to plant; 0=no damage to plant)
Outline: as §1

Avena fatua (AVEFA) [4] = assay: as above; conditions: Avena fatua, 312 h, Rate 250 g/ha, evaluated after 13 days, read-out: Pre-emergence activity AVEFA (100=total damage to plant; 0=no damage to plant)
Outline: as §1

Lolium perenne (LOLPE) [5] = assay: Post-emergence herbicidal activity, glasshouse pot test; conditions: Lolium perenne, 312 h, rate 250 g/ha, evaluated after 13 days, read-out: Post-emergence activity LOLPE (100=total damage to plant; 0=no damage to plant)
Outline: as §1

[6] = system: Alopecurus myosuroides (ALOMY); assay: as above; conditions: Alopecurus myosuroides, 312 h, rate 250 g/ha, evaluated after 13 days, read-out: Post-emergence activity ALOMY (100=total damage to plant; 0=no damage to plant)
Outline: as §1

[7] = system: Echinochloa crus-galli (ECHCG); assay: as above; conditions: Echinochloa crus-galli, 312 h, rate 250 g/ha, evaluated after 13 days, read-out: Post-emergence activity ECHCG (100=total damage to plant; 0=no damage to plant)
Outline: as §1

Avena fatua (AVEFA) [8] = assay: as above; conditions: Avena fatua, 312 h, rate 250 g/ha, evaluated after 13 days, read-out: Post-emergence activity AVEFA (100=total damage to plant; 0=no damage to plant)
Outline: as §1

| Compound | pest or weed control at 250 g/ha (Lolium perenne (LOLPE) [1]; pre-emergence spray) | pest or weed control at 250 g/ha ([2]; pre-emergence spray) | pest or weed control at 250 g/ha ([3]; pre-emergence spray) | pest or weed control at 250 g/ha (Avena fatua (AVEFA) [4]; pre-emergence spray) | pest or weed control at 250 g/ha (Lolium perenne (LOLPE) [5]; glasshouse) | pest or weed control at 250 g/ha ([6]; glasshouse) | pest or weed control at 250 g/ha ([7]; glasshouse) | pest or weed control at 250 g/ha (Avena fatua (AVEFA) [8]; glasshouse) | pest or weed control at 250 g/ha (Lolium perenne (LOLPE) [1]; pre-emergence) | pest or weed control at 250 g/ha ([2]; pre-emergence) | pest or weed control at 250 g/ha ([3]; pre-emergence) | pest or weed control at 250 g/ha (Avena fatua (AVEFA) [4]; pre-emergence) | pest or weed control at 250 g/ha (Lolium perenne (LOLPE) [5]) | pest or weed control at 250 g/ha [6] | pest or weed control at 250 g/ha [7] | pest or weed control at 250 g/ha (Avena fatua (AVEFA) [8]) |
| --- | --- | --- | --- | --- | --- | --- | --- | --- | --- | --- | --- | --- | --- | --- | --- | --- |
| CCc1ccc(Oc2cnc3cc(Cl)ccc3n2)cc1C1=C(O)C(C)(C)OC(C)(C)C1=O [Example A-55] | 100% | 80% | 100% | 90% | 100% | 100% | 100% | 100% |  |  |  |  |  |  |  |  |
| CCc1ccc(Oc2ncc(C(F)(F)F)cc2C(F)(F)F)cc1C1=C(O)CC2(CCOCC2)CC1=O [Example A-269] | 90% | 100% | 100% | 80% | 70% | 90% | 100% | 90% |  |  |  |  |  |  |  |  |
| CCc1ccc(Oc2ccc([N+](=O)[O-])cc2C(F)(F)F)cc1C1=C(O)CC(C)(C)CC1=O [Example A-294] | 70% | 60% | 90% | 0% | 20% | 40% | 80% | 40% |  |  |  |  |  |  |  |  |
| CCc1ccc(Oc2ncc(Cl)cc2F)cc1C1=C(O)CC(C)(C)CC1=O [Example A-85] | 100% | 100% | 100% | 100% | 90% | 100% | 100% | 90% |  |  |  |  |  |  |  |  |
| CCc1ccc(Oc2ccc(Cl)cc2F)cc1C1=C(O)[C@H]2CC[C@H](C2)C1=O (single isomer, unassigned) [Example A-89] | 100% | 80% | 100% | 80% | 60% | 90% | 100% | 90% |  |  |  |  |  |  |  |  |
| CCc1ccc(Oc2ccc(Cl)cc2F)cc1C1=C(O)CCCC1=O [Example A-38] | 70% | 50% | 70% | 10% | 30% | 20% | 80% | 30% |  |  |  |  |  |  |  |  |
| CCc1ccc(Oc2nc3c(Cl)cc(Cl)cc3s2)cc1C1=C(O)[C@H]2CC[C@H](C2)C1=O [Example A-345] | 100% | 90% | 100% | 60% | 100% | 80% | 100% | 100% |  |  |  |  |  |  |  |  |
| CCc1ccc(Oc2cc(F)cc(F)c2C#N)cc1C1=C(O)C(C)(C)OC(C)(C)C1=O [Example A-206] | 10% | 0% | 30% | 0% | 50% | 20% | 70% | 30% |  |  |  |  |  |  |  |  |
| CC1(C)OC(C)(C)C(O)=C(c2cc(Oc3nc4ccc(C(F)(F)F)cc4s3)ccc2C2CC2)C1=O [Example A-370] |  |  |  |  |  |  |  |  | 90% | 50% | 70% | 30% | 80% | 90% | 100% | 100% |
